Results from PubChem BioAssay AID489040 (Sanford-Burnham Center for Chemical Genomics, 2010).
The source made the active and inactive calls.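 Rule for the calls: active = mean half-maximal activating concentration from the dose-response fit at or below a set limit; inactive = the rest.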

Molecular target: CHO-XBP1 luciferase reporter, IRE1-XBP1 UPR activation
Experiment: XBP1 luciferase reporter activation – CHO-XBP1 cells, luminescence, counter-screen for apoptotic UPR arm activators, dose response (AID 489040);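 note: reporter read after six hours of compound exposure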

SMILES | EC50
OCCNc1nc(Nc2ccc(Cl)c(Cl)c2)nc2ccccc12 | > 80 µM (inactive)
CCSC1(SCC)N=C(N)C2(C#N)C(c3ccc(F)cc3)C12C#N (configuration not stated) | > 80 µM (inactive)
COc1ccccc1NC(=O)c1cnc(SCC(=O)NCC2CCCO2)n(C)c1=O (configuration not stated) | > 80 µM (inactive)
COc1cc(NS(=O)(=O)c2ccc3ccccc3c2)c2ncccc2c1 | 15.5 µM
CC1=NOC(=O)/C1=C\c1ccc(-c2ccc(Cl)cc2Cl)o1 | > 80 µM (inactive)
CCCC[C@@H](C)C[C@@H](C)C(=O)N(C)[C@@H](CC(C)C)C(=O)N[C@H](C(=O)N(C)[C@H](C(=O)N1C[C@@H](O)C[C@H]1C(=O)N1C(=O)C=C[C@@H]1C)C(C)C)C(C)OC(C)=O (some centres not stated) | 15.6 µM
COc1ccc(NC(=O)C(=O)N/N=C\c2ccc(CNC(=O)C(=O)Nc3ccc(C)c(C)c3)o2)c(OC)c1 | > 80 µM (inactive)
COc1ccc(N=Cc2c(O)c3ccccc3oc2=O)cc1 | 11.6 µM
Cc1ccc(C(C)C)c(OCc2ccc(C(=O)N/N=C/c3ccc(O)c(O)c3)cc2)c1 | 4.41 µM
CC1(C)CC(=O)C2=C(C1)Oc1nc3ccccc3cc1C2C(C#N)C#N (configuration not stated) | > 80 µM (inactive)
O=c1[nH]c(-c2ccc(-c3cccc(Cl)c3)o2)nc2ccccc12 | 15 µM
COc1ccc(C(=O)N/N=C(\C)c2ccccn2)cc1OC | > 80 µM (inactive)
CCOc1cc(/C=C2/C(=N)N3C=CSC3=NC2=O)ccc1OCCCOc1ccccc1C | 20 µM
CCOc1ccccc1N=Cc1c(O)c2ccccc2oc1=O | 10.8 µM
Oc1ccc(/C=N/N2CCCCC2)cc1O | > 80 µM (inactive)
O=[N+]([O-])c1ccccc1S(=O)(=O)Nc1cccc2cccnc12 | > 80 µM (inactive)
O=C(Nc1nc(-c2ccc3ccccc3c2)cs1)c1ccc(N2C(=O)CCC2=O)cc1 | > 80 µM (inactive)
Cc1c(C(=O)c2cccc3ccccc23)c2cccc3c2n1[C@H](CN1CCOCC1)CO3 | > 80 µM (inactive)
CN(/N=C\c1ccc(O)c(O)c1)c1nc(-c2ccccc2)cc(-c2ccccc2)n1 | 4.96 µM
Cc1cccc(Nc2nc(-c3ccccn3)cs2)n1 | > 80 µM (inactive)
Cc1ccc(C)c(NC(=O)/C(C#N)=C/c2cn(CC(=O)NCc3ccco3)c3ccccc23)c1 | 6.33 µM
Cc1c(C#N)c(NC(=O)CCl)n(Cc2ccccc2)c1C | > 80 µM (inactive)
COc1ccc(C2Nc3ccc4ccccc4c3-c3c2c(=O)oc2ccccc32)cc1 (configuration not stated) | 9.62 µM
COc1cc(C(=O)Nc2nc(-c3ccc(Cl)cc3)c(C)s2)ccc1OCC(=O)Nc1ccc(F)cc1 | > 80 µM (inactive)
O=C(CN1CCN(c2ccccc2F)CC1)c1ccc(O)c(O)c1 | > 80 µM (inactive)

SMILES | EC50
Clc1ccc(-n2nnnc2Sc2ncnc3sccc23)cc1 | > 80 µM (inactive)
Cc1ccc(C(C[N+](=O)[O-])n2nc(C)cc2C)cc1 (configuration not stated) | > 80 µM (inactive)
Oc1ccc(-c2csc(Nc3cccc4ccccc34)n2)cc1O | > 80 µM (inactive)
CCCCC(CC)CN=C(N)NC(N)=NCCCCCCN=C(N)NC(N)=NCC(CC)CCCC (configuration not stated) | > 80 µM (inactive)
O=[N+]([O-])c1ccc(C=Nc2ccc(Cl)c([N+](=O)[O-])c2)s1 | > 80 µM (inactive)
CN(C(=O)CSc1cc(C(=O)c2nccn2C)c2ccccc2n1)c1ccccc1 | > 80 µM (inactive)
CCOC(=O)C1=C(Cc2ccc(Cl)cc2)C(=O)c2ccccc2C1=O | > 80 µM (inactive)
CC1=NOC(=O)/C1=C\c1ccc(-c2cccc(Cl)c2)o1 | > 80 µM (inactive)
Cc1nc(SCC(=O)Nc2ccc(F)cc2)c(C#N)c(C)c1CC(=O)c1ccc(Br)cc1 | > 80 µM (inactive)
COc1ccc(C(=O)NCC(=O)N/N=C/c2ccc([N+](=O)[O-])o2)cc1OC | > 80 µM (inactive)
CCCCC1CCC(C(=O)N(CCCC)c2c(N)n(CCCC)c(=O)[nH]c2=O)CC1 (configuration not stated) | > 80 µM (inactive)
CC(C)c1cccc(-c2ccc3c(c2)S(=O)(=O)c2cccc(C(=O)NCc4ccccc4Cl)c2C3=O)c1 | 11.2 µM
CN1/C(=C\C(=O)COC(=O)c2ccc(O)c(O)c2)C(C)(C)c2ccccc21 | 9.91 µM
COc1cc([C@H]2c3[nH]c4ccccc4c3C[C@H]3C(=O)N4[C@@H](c5cc(OC)c(OC)c(OC)c5)c5[nH]c6ccccc6c5C[C@H]4C(=O)N23)cc(OC)c1OC | 14.1 µM
O=C(/C(=C\c1ccccc1)c1nc2ccccc2[nH]1)c1ccc(Cl)cc1 | > 80 µM (inactive)
S=C(Nc1ccccn1)c1ccccn1 | > 80 µM (inactive)
CC(C)(C)C1=CC(=O)C(=O)C(C(C)(C)C)=C1 | > 80 µM (inactive)
Cn1cc(/C=C2\SC(=O)NC2=S)c2ccccc21 | inactive
COc1cc(/C=C2\COC/C(=C\c3ccc(O)c(OC)c3)C2=O)ccc1O | > 80 µM (inactive)
O=C(Nc1cccc(-c2nc3cccnc3s2)c1)C1c2ccccc2Oc2ccccc21 | 5.58 µM
COc1ccc(N=c2oc3ccc(OC)cc3cc2-c2nc3ccccc3[nH]2)cc1 | 12.5 µM
COc1cccc2sc(N3CCN(c4nc5ccccc5s4)CC3)nc12 | 18.7 µM
Cc1nn(Cc2c(Cl)cccc2Cl)c(C)c1NC(=O)c1cn(-c2ccccc2)nc1-c1ccccc1 | > 80 µM (inactive)
Cc1nn(Cc2c(Cl)cccc2Cl)c(C)c1NC(=O)c1sc2ccccc2c1Cl | inactive
C=CCn1c(O)c(N=NC(=S)Nc2ccccc2F)c2cc(S(=O)(=O)N3CCOCC3)ccc21 | > 80 µM (inactive)

SMILES | EC50
O=C1NC(=O)N(c2ccccc2)C(=O)/C1=C\C=C\c1ccccc1 | > 80 µM (inactive)
CCn1c(-c2ccccc2)c(C(=O)CCl)c2ccccc21 | > 80 µM (inactive)
S=C1SCN(CCN2CCOCC2)CN1Cc1ccccc1 | > 80 µM (inactive)
O=C(Nc1cccc(S(=O)(=O)N2CCCCC2)c1)c1ccc([N+](=O)[O-])o1 | > 80 µM (inactive)
CCOC(=O)c1c(C)oc2c1c(C(c1ccccc1)N1CCOCC1)c(O)c1ccccc12 (configuration not stated) | > 80 µM (inactive)
COc1cccc(-n2c(SCC(=O)N3CCc4ccccc43)nnc2-c2c[nH]c3ccccc23)c1 | inactive
CSc1nnc(NC(=O)c2nc(S(=O)(=O)Cc3ccccc3)ncc2Cl)s1 | > 80 µM (inactive)
CN(C)C(=S)N=Nc1[nH]c2ccccc2c1O | > 80 µM (inactive)
O=c1cc(C(Cl)(Cl)Cl)oc2c1ccc1ccccc12 | inactive
Brc1ccccc1CN1CCN(Cc2c[nH]c3ccccc23)CC1 | > 80 µM (inactive)
Oc1ccc(/C=N/Nc2nc(N3CCCC3)nc(N3CCCC3)n2)cc1O | 18 µM
COc1ccc2c(c1OC)C(=O)OC2Nc1nc(-c2ccccc2)cs1 (configuration not stated) | > 80 µM (inactive)
Oc1c(N=Nc2ccccn2)ccc2ccccc12 | > 80 µM (inactive)
COc1ccc(N=c2oc3c(OC)cccc3cc2C(=O)NCc2ccco2)cc1OC | > 80 µM (inactive)
Cc1ccn2cc(-c3ccc(O)c(O)c3)nc2c1 | > 80 µM (inactive)
Cc1ccc(NC(=O)c2ccc([N+](=O)[O-])o2)cc1S(=O)(=O)N1CCOCC1 | > 80 µM (inactive)
Oc1c(Cl)cc(CN2CCOCC2)c2cccnc12 | > 80 µM (inactive)
Cc1cc(C)nc(SCc2ccc(C(=O)N/N=C/c3cccc(O)c3O)cc2)n1 | > 80 µM (inactive)
COC(=O)C1=C(C)N(c2ccc(C)c(C)c2)/C(=C/c2ccco2)C1=O | > 80 µM (inactive)
CSc1nnc(NC(=O)c2nc(S(=O)(=O)Cc3cccc(C)c3)ncc2Cl)s1 | > 80 µM (inactive)
COCCN=c1scc(-c2cccs2)n1/N=C/c1ccc(O)c(O)c1O | > 80 µM (inactive)
Cc1ccc(-c2csc3ncnc(Sc4nnc(CN5CCCCCC5=O)o4)c23)cc1 | > 80 µM (inactive)
CSC(=S)N/N=C(\C)c1ccccc1 | > 80 µM (inactive)
O=C(/C=C1\NC2(CCCC2)Cc2ccccc21)C(=O)N/N=C/c1ccc(O)c(O)c1 | 13.6 µM
Cc1cc(C)cc(N2C(=O)NC(=O)/C(=C\c3cccn3-c3ccccc3)C2=O)c1 | > 80 µM (inactive)

SMILES | EC50
Cc1ccc(C)c2sc(N3CCN(C(=O)c4ccc([N+](=O)[O-])o4)CC3)nc12 | > 80 µM (inactive)
O=C(N/N=C/c1cccc2cccnc12)c1ccccc1O | > 80 µM (inactive)
C=C(C(=O)c1ccccc1)C(C(=C)C(=O)c1ccccc1)c1ccc(OC)cc1 | > 80 µM (inactive)
Cc1ccc(Sc2nc(-c3ccccc3)nnc2C(F)(F)F)cc1 | > 80 µM (inactive)
COCc1cc(C)nc(OCC(=O)N/N=C/c2ccc(-c3cc([N+](=O)[O-])ccc3Cl)o2)c1C#N | 13.2 µM
COc1ccc(CCNC(=O)c2coc(=O)c(Br)c2)cc1 | > 80 µM (inactive)
CCOC(=O)C(=Cc1ccc(F)cc1)C(=O)OCC | > 80 µM (inactive)
C=CCN=c1scc(C)n1/N=C/c1ccc(O)c(O)c1 | 17.4 µM
O=C(NCc1cccnc1)/C(=C/c1ccc(-c2cccc(Cl)c2)o1)S(=O)(=O)c1ccccc1 | > 80 µM (inactive)
COc1cccc(N=Nc2ccc3cccnc3c2O)c1 | > 80 µM (inactive)
Cc1nc2ccccc2n1-c1nc(-c2ccco2)cc(C(F)(F)F)n1 | > 80 µM (inactive)
O=C(N/N=C/c1ccccn1)c1sc2ccccc2c1Cl | > 80 µM (inactive)
NC(N)=N/N=C/c1ccc(N(c2ccccc2)c2ccccc2)cc1 | > 80 µM (inactive)
CCc1cccc(CC)c1NC(=O)/C(C#N)=C/c1ccccc1C(F)(F)F | > 80 µM (inactive)
CCOC(=O)c1cnc(-n2nc(C)cc2C)nc1Nc1ccc(N(C)C)cc1 | > 80 µM (inactive)
O=C(CN(c1cccc(C(F)(F)F)c1)S(=O)(=O)c1ccc(Cl)c([N+](=O)[O-])c1)NCc1ccc(F)cc1 | > 80 µM (inactive)
CC1CCN(Cc2c(C(=O)N/N=C/c3ccc(C(C)(C)C)cc3)nnn2-c2nonc2N)CC1 | > 80 µM (inactive)
COc1cc(SC#N)ccc1N=Cc1c(C)[nH]n(-c2ccc(C)c(C)c2)c1=O | > 80 µM (inactive)
Oc1ccc(CN2CCN(c3ccccc3)CC2)c2cccnc12 | > 80 µM (inactive)
COc1ccc(C(C[N+](=O)[O-])n2nc(C)cc2C)cc1 (configuration not stated) | > 80 µM (inactive)
Cc1cc(C(=O)CCl)c(C)n1CCc1ccc(Cl)cc1 | > 80 µM (inactive)
CCN(CC)S(=O)(=O)c1ccc(N/N=C(\C)c2ccc3c(c2)OCO3)c([N+](=O)[O-])c1 | 17.5 µM
